Source: patent US12065436B2, “Cardiac sarcomere inhibitors” (Cytokinetics, Inc., priority 2018, dated 2024)

Target: bovine cardiac myofibrils (full-length cardiac myosin ATPase in the native sarcomere) (Bos taurus (Bovine), UniProt Q9BE39)
Assay: Skinned bovine cardiac myofibril ATPase assay (PK/LDH-coupled)
Format: biochemical
Details: Ca2+ activating to 75% of maximal rate; for CDMF75 IC15: concentration giving 15% inhibition; for IC50: read-out: CDMF75 IC50
How it was run: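 Inhibition of steady-state ATPase read at 340 nm through a PK/LDH-coupled NADH system (0.5 mM NADH, 1.5 mM PEP). Detergent-skinned bovine cardiac myofibrils, 1 mg/mL, were tested at pH 6.8 in PIPES/MgCl2 with 50 μM ATP and calcium adjusted to give pCa50 or pCa75 activation.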

Sequence of bovine cardiac myofibrils (full-length cardiac myosin ATPase in the native sarcomere) (Q9BE39 whole entry): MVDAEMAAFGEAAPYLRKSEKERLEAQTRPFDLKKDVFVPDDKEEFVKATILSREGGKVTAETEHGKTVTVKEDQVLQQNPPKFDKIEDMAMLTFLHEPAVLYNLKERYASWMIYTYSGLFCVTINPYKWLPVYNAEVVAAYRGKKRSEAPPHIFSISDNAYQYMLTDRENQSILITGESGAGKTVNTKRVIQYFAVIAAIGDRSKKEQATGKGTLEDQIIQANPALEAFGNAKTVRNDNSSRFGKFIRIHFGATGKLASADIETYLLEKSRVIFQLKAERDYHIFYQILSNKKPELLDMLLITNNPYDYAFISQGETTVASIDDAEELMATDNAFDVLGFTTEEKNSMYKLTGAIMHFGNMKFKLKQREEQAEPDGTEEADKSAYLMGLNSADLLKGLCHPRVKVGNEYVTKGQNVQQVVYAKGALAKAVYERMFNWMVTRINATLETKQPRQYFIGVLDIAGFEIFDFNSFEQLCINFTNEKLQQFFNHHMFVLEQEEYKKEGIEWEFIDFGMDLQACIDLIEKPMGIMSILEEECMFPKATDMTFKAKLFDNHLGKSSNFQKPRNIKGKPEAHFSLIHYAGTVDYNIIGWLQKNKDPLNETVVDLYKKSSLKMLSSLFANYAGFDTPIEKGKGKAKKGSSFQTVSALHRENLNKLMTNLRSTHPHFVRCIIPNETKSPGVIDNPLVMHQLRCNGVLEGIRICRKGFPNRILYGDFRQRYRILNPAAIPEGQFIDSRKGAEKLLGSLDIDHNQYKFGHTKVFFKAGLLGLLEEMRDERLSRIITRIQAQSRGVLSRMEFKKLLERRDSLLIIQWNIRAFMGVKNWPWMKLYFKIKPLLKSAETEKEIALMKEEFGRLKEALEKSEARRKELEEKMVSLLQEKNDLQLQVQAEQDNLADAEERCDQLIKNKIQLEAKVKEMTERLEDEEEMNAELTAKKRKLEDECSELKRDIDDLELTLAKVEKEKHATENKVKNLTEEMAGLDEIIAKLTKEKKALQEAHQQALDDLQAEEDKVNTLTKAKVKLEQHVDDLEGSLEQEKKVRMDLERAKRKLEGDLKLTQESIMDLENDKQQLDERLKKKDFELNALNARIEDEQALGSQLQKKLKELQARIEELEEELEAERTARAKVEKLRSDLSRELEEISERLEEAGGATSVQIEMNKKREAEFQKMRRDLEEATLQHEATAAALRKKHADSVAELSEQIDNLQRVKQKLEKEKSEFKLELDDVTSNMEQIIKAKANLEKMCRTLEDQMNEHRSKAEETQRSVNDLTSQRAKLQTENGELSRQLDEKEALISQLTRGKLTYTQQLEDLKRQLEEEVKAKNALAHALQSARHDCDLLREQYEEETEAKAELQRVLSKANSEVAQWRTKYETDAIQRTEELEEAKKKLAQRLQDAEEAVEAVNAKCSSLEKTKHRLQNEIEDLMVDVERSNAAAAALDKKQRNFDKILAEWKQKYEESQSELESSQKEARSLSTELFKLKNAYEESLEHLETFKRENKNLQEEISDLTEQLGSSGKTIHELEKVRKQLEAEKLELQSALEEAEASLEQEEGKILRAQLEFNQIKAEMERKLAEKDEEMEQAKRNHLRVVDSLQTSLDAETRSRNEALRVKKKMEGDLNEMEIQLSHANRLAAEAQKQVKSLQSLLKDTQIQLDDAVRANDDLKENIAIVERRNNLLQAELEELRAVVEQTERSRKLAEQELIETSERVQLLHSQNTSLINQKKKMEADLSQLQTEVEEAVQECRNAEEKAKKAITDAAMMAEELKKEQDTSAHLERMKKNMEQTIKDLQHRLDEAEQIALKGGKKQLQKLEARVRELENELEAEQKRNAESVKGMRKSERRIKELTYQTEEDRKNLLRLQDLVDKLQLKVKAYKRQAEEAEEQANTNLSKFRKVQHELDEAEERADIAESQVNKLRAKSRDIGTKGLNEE
Sequence of bovine cardiac myofibrils (full-length cardiac myosin ATPase in the native sarcomere) (P85100 whole entry partner): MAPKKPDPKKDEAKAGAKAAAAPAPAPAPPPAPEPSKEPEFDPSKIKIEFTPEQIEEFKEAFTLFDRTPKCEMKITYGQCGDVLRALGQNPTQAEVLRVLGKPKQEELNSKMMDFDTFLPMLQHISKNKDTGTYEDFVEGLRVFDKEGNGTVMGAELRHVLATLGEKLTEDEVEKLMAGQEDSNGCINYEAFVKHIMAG
Sequence of bovine cardiac myofibrils (full-length cardiac myosin ATPase in the native sarcomere) (Q3SZE5 whole entry partner): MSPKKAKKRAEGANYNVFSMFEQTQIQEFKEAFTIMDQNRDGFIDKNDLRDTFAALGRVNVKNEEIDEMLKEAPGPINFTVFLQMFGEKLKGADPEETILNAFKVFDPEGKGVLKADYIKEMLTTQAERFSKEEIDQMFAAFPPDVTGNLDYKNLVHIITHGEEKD

Row | CDMF75 IC15 | IC50 | SMILES
1 | 1.7 µM | 7 µM | CCc1nc(-c2ccc3c(c2)CC[C@H]3NC(=O)C2(C)CC2)no1 [Compound 329, (R)-N-(5-(5-ethyl-1,2,4-oxadiazol-3-yl)-2,3-dihydro-1H-inden-1-yl)-1-methylcyclopropane-1-carboxamide]
2 | 3.8 µM | 17.7 µM | CC1(C(=O)N[C@@H]2CCc3cc(-c4noc(C5CC5)n4)ccc32)CC1 [Compound 330, (R)-N-(5-(5-cyclopropyl-1,2,4-oxadiazol-3-yl)-2,3-dihydro-1H-inden-1-yl)-1-methylcyclopropane-1-carboxamide]
3 | 20.0 µM | > 39.2 µM | CC(=O)N1CC[C@@H]1C(=O)N[C@@H]1CCc2cc(-c3noc(C4CC4)n3)ccc21 [Compound 331, (R)-1-acetyl-N-((R)-5-(5-cyclopropyl-1,2,4-oxadiazol-3-yl)-2,3-dihydro-1H-inden-1-yl)azetidine-2-carboxamide]
4 | 39.2 µM | > 39.2 µM | CC(=O)N1CC[C@H]1C(=O)N[C@@H]1CCc2cc(-c3noc(C4CC4)n3)ccc21 [Compound 332, (S)-1-acetyl-N-((R)-5-(5-cyclopropyl-1,2,4-oxadiazol-3-yl)-2,3-dihydro-1H-inden-1-yl)azetidine-2-carboxamide]
5 | 0.3 µM | 0.9 µM | CCc1nc(-c2ccc3c(c2)CC[C@H]3NC(=O)OCC(F)F)no1 [Compound 333, 2,2-difluoroethyl (R)-(5-(5-ethyl-1,2,4-oxadiazol-3-yl)-2,3-dihydro-1H-inden-1-yl)carbamate]
6 | 0.6 µM | 1.9 µM | O=C(N[C@@H]1CCc2cc(-c3noc(C4CC4)n3)ccc21)OCC(F)F [Compound 334, 2,2-difluoroethyl (R)-(5-(5-cyclopropyl-1,2,4-oxadiazol-3-yl)-2,3-dihydro-1H-inden-1-yl)carbamate]
7 | 19.1 µM | > 39.2 µM | CCc1nc(-c2ccc3c(c2)CC[C@H]3NC(=O)[C@H]2CCC(=O)N2)no1 [Compound 335, (R)-N-((R)-5-(5-ethyl-1,2,4-oxadiazol-3-yl)-2,3-dihydro-1H-inden-1-yl)-5-oxopyrrolidine-2-carboxamide]
8 | 30.9 µM | > 39.2 µM | O=C1CC[C@H](C(=O)N[C@@H]2CCc3cc(-c4noc(C5CC5)n4)ccc32)N1 [Compound 336, (R)-N-((R)-5-(5-cyclopropyl-1,2,4-oxadiazol-3-yl)-2,3-dihydro-1H-inden-1-yl)-5-oxopyrrolidine-2-carboxamide]
9 | 24.7 µM | > 39.2 µM | CCc1nc(-c2ccc3c(c2)CC[C@H]3NC(=O)[C@@H]2CCC(=O)N2)no1 [Compound 337, (S)-N-((R)-5-(5-ethyl-1,2,4-oxadiazol-3-yl)-2,3-dihydro-1H-inden-1-yl)-5-oxopyrrolidine-2-carboxamide]
10 | 39.2 µM | > 39.2 µM | O=C1CC[C@@H](C(=O)N[C@@H]2CCc3cc(-c4noc(C5CC5)n4)ccc32)N1 [Compound 338, (S)-N-((R)-5-(5-cyclopropyl-1,2,4-oxadiazol-3-yl)-2,3-dihydro-1H-inden-1-yl)-5-oxopyrrolidine-2-carboxamide]
11 | 0.4 µM | 1.2 µM | CCc1nc(-c2ccc3c(c2)OC[C@H]3NC(=O)c2cc(C)no2)no1 [Compound 339, (S)-N-(6-(5-ethyl-1,2,4-oxadiazol-3-yl)-2,3-dihydrobenzofuran-3-yl)-3-methylisoxazole-5-carboxamide]
12 | 0.3 µM | 0.7 µM | CCc1nc(-c2ccc3c(c2)OC[C@H]3NC(=O)c2conc2C)no1 [Compound 340, (S)-N-(6-(5-ethyl-1,2,4-oxadiazol-3-yl)-2,3-dihydrobenzofuran-3-yl)-3-methylisoxazole-4-carboxamide]
13 | 1.9 µM | 7.3 µM | [2H]C([2H])([2H])c1noc(-c2ccc3c(c2)OC[C@H]3NC(=O)c2cnn(C)c2C)n1 [Compound 341, (S)-1,5-dimethyl-N-(6-(3-(methyl-d3)-1,2,4-oxadiazol-5-yl)-2,3-dihydrobenzofuran-3-yl)-1H-pyrazole-4-carboxamide]
14 | 8.0 µM | > 39.2 µM | [2H]C([2H])([2H])c1noc(-c2ccc3c(c2)OC[C@H]3NC(=O)c2nnn(C)n2)n1 [Compound 342, (S)-2-methyl-N-(6-(3-(methyl-d3)-1,2,4-oxadiazol-5-yl)-2,3-dihydrobenzofuran-3-yl)-2H-tetrazole-5-carboxamide]
15 | 1.8 µM | 6.6 µM | Cc1noc(-c2ccc3c(c2)OC[C@H]3NC(=O)c2cnn(C)c2C)n1 [Compound 343, (S)-1,5-dimethyl-N-(6-(3-methyl-1,2,4-oxadiazol-5-yl)-2,3-dihydrobenzofuran-3-yl)-1H-pyrazole-4-carboxamide]
16 | 8.6 µM | > 39.2 µM | Cc1noc(-c2ccc3c(c2)OC[C@H]3NC(=O)c2nnn(C)n2)n1 [Compound 344, (S)-2-methyl-N-(6-(3-methyl-1,2,4-oxadiazol-5-yl)-2,3-dihydrobenzofuran-3-yl)-2H-tetrazole-5-carboxamide]

Row | CDMF75 IC15 | IC50 | SMILES
17 | 0.9 µM | 3.2 µM | Cc1cc(C(=O)N[C@@H]2COc3cc(-c4noc(C)n4)ccc32)on1 [Compound 346, (S)-3-methyl-N-(6-(5-methyl-1,2,4-oxadiazol-3-yl)-2,3-dihydrobenzofuran-3-yl)isoxazole-5-carboxamide]
18 | 0.5 µM | 1.6 µM | Cc1nc(-c2ccc3c(c2)OC[C@H]3NC(=O)c2conc2C)no1 [Compound 347, (S)-3-methyl-N-(6-(5-methyl-1,2,4-oxadiazol-3-yl)-2,3-dihydrobenzofuran-3-yl)isoxazole-4-carboxamide]
19 | 0.5 µM | 1.8 µM | COC(=O)N[C@@H]1COc2cc(-c3noc(C4CC4)n3)ccc21 [Compound 348, methyl (S)-(6-(5-cyclopropyl-1,2,4-oxadiazol-3-yl)-2,3-dihydrobenzofuran-3-yl)carbamate]
20 | 0.3 µM | 0.9 µM | CCc1nc(-c2ccc3c(c2)OC[C@H]3NC(=O)OC)no1 [Compound 349, methyl (S)-(6-(5-ethyl-1,2,4-oxadiazol-3-yl)-2,3-dihydrobenzofuran-3-yl)carbamate]
21 | 0.5 µM | 2.1 µM | COC(=O)N[C@@H]1CCc2cc(-c3nc(C4CC4)no3)ccc21 [Compound 350, methyl (R)-(5-(3-cyclopropyl-1,2,4-oxadiazol-5-yl)-2,3-dihydro-1H-inden-1-yl)carbamate]
22 | 18.8 µM | > 39.2 µM | CCc1nc(-c2ccc3c(c2)CC[C@H]3NC(=O)[C@@H]2CCNC(=O)C2)no1 [Compound 351, (R)-N-((R)-5-(5-ethyl-1,2,4-oxadiazol-3-yl)-2,3-dihydro-1H-inden-1-yl)-2-oxopiperidine-4-carboxamide]
23 | 13.0 µM | > 39.2 µM | CCc1nc(-c2ccc3c(c2)CC[C@H]3NC(=O)C2CCC(=O)N(C)C2)no1 (stereo partly drawn) [Compound 352, N-((R)-5-(5-ethyl-1,2,4-oxadiazol-3-yl)-2,3-dihydro-1H-inden-1-yl)-1-methyl-6-oxopiperidine-3-carboxamide]
24 | 29.0 µM | > 39.2 µM | CCc1nc(-c2ccc3c(c2)CC[C@H]3NC(=O)C2CCCCN2C)no1 (stereo partly drawn) [Compound 353, N-((R)-5-(5-ethyl-1,2,4-oxadiazol-3-yl)-2,3-dihydro-1H-inden-1-yl)-1-methylpiperidine-2-carboxamide]
25 | 34.1 µM | > 39.2 µM | CCc1nc(-c2ccc3c(c2)CC[C@H]3NC(=O)C2CCCC(=O)N2)no1 (stereo partly drawn) [Compound 354, N-((R)-5-(5-ethyl-1,2,4-oxadiazol-3-yl)-2,3-dihydro-1H-inden-1-yl)-6-oxopiperidine-2-carboxamide]
26 | 2.9 µM | 10.9 µM | CCc1nc(-c2ccc3c(c2)CC[C@H]3NC(=O)[C@H]2CCNC(=O)C2)no1 [Compound 355, (S)-N-((R)-5-(5-ethyl-1,2,4-oxadiazol-3-yl)-2,3-dihydro-1H-inden-1-yl)-2-oxopiperidine-4-carboxamide]
27 | 13.4 µM | > 39.2 µM | CCc1nc(-c2ccc3c(c2)CC[C@H]3NC(=O)[C@H]2COCCN2)no1 [Compound 356, (R)-N-((R)-5-(5-ethyl-1,2,4-oxadiazol-3-yl)-2,3-dihydro-1H-inden-1-yl)morpholine-3-carboxamide]
28 | 0.5 µM | 1.7 µM | CCc1nc(-c2ccc3c(c2)CC[C@H]3NC(=O)OC2COC2)no1 [Compound 357, oxetan-3-yl (R)-(5-(5-ethyl-1,2,4-oxadiazol-3-yl)-2,3-dihydro-1H-inden-1-yl)carbamate]
29 | 0.6 µM | 2.2 µM | CCc1nc(-c2ccc3c(c2)CC[C@H]3NC(=O)OCC2COC2)no1 [Compound 358, oxetan-3-ylmethyl (R)-(5-(5-ethyl-1,2,4-oxadiazol-3-yl)-2,3-dihydro-1H-inden-1-yl)carbamate]
30 | 2.3 µM | 9.5 µM | CCc1nc(-c2ccc3c(c2)CC[C@H]3NC(=O)OCC(C)(C)OC)no1 [Compound 359, 2-methoxy-2-methylpropyl (R)-(5-(5-ethyl-1,2,4-oxadiazol-3-yl)-2,3-dihydro-1H-inden-1-yl)carbamate]
31 | 21.6 µM | > 39.2 µM | CCc1nc(-c2ccc3c(c2)CC[C@H]3NC(=O)OCC2CN(C(C)=O)C2)no1 [Compound 360, (1-acetylazetidin-3-yl)methyl (R)-(5-(5-ethyl-1,2,4-oxadiazol-3-yl)-2,3-dihydro-1H-inden-1-yl)carbamate]
32 | 23.7 µM | > 39.2 µM | CCc1nc(-c2ccc3c(c2)CC[C@H]3NC(=O)OCC2CN(C(=O)OC)C2)no1 [Compound 361, methyl (R)-3-((((5-(5-ethyl-1,2,4-oxadiazol-3-yl)-2,3-dihydro-1H-inden-1-yl)carbamoyl)oxy)methyl)azetidine-1-carboxylate]
